The structures appear in SMILES notation.

Results on 5 compounds are retold here after patent US20250041179A1, “ANTIMICROBIAL COMBINATIONS” (SYMRISE AG, priority 2021, published 2025).

For one test, the system named is A. brasiliensis. The test is described as follows: Preservative efficacy test (Ph. Eur., adjusted inoculum) in shampoo formulation. The test is classed as cell-based, Aspergillus brasiliensis. The procedure: (§1) Preservative efficacy tests were performed according to the European Pharmacopoeia with adjusted inoculation numbers (10^6-10^7 cells of suitable bacteria or fungi). Material was tested in predesigned standardised cosmetic formulations either as oil-in-water anionic emulsion (Table 2), shampoo (Table 3), or wet wipe solution (Table 4). The antimicrobial actives were dissolved or mixed with the standardised cosmetic formulations, leading to the indicated test concentrations (in w/w %, cf. Tables 5 to 12 below). To determine synergistic indices, raw values for bacterial of fungal colony counts were used.
(§2) [formula] • where • SI is the synergism index according to Kull • CA is the cell count for substance A (also “count A”) • CB is the cell count for substance B (also “count B”) • Cmixture is the cell count for the mixture of substance A and B (also “count mix”) • PA is the proportion of the substance A in the mixture in relation to the concentration tested alone • PB is the proportion of the substance B in the mixture in relation to the concentration tested alone

In test [1] the test system is E. coli. Description: Preservative efficacy test (Ph. Eur., adjusted inoculum) in O/W anionic emulsion. Conditions: substance alone 0.5% w/w. The test is classed as cell-based, Escherichia coli. The procedure: (§3) Material was tested in predesigned standardised cosmetic formulations either as oil-in-water anionic emulsion (Table 2), shampoo (Table 3), or wet wipe solution (Table 4). The antimicrobial actives were dissolved or mixed with the standardised cosmetic formulations, leading to the indicated test concentrations (in w/w %, cf. […] To determine synergistic indices, raw values for bacterial of fungal colony counts were used. [table] […] Steinberg D. C. (2000): Measuring Synergy. In Cosmetics & Toiletries, 115) was used: […]

Another test has as its system C. albicans. Description: Preservative efficacy test (Ph. Eur., adjusted inoculum) in shampoo formulation. The test is classed as cell-based, Candida albicans. Conditions: substance alone 0.5% w/w. The procedure: as §1, §2
A further test deals with P. aeruginosa. The test is described as above. The test is classed as cell-based, Pseudomonas aeruginosa. As to conditions: substance alone 0.5% w/w. The procedure: as §1, §2
Test [2] has as its system S. aureus. Description: Preservative efficacy test (Ph. Eur., adjusted inoculum) in O/W anionic emulsion. The test is classed as cell-based, Staphylococcus aureus. As to conditions: substance alone 0.5% w/w. The procedure: as §3
The subject of test [3] is E. coli. The test is described as follows: Preservative efficacy test (Ph. Eur., adjusted inoculum) in shampoo formulation. As to conditions: substance alone 0.5% w/w. The test is classed as cell-based, Escherichia coli. The procedure:
as §1
(§4) To calculate the synergism between the indicated antimicrobial actives (cf. preservative efficacy tests below), the Kull equation (Kull et al., Applied Microbiology 1961, 9 (6), pp. 538-541, DOI: 10.1128/am.9.6.538-541.1961.; Steinberg D. C. (2000): Measuring Synergy. In Cosmetics & Toiletries, 115) was used:
as §2

Test [4] concerns S. aureus. The description is as above. The class given is cell-based, Staphylococcus aureus. As to conditions: substance alone 0.2% w/w. The procedure: as §1, §4, §2

With `CC(C)(C)C(=O)C(Oc1ccc(Cl)cc1)n1ccnc1` (centres unmarked) [Climbazole, climbazole, reference compound], in the test on A. brasiliensis (substance alone 0.5% w/w), the “Absolute cell counts 2 days” value was found to be 1.50E+05, the “Relative cell counts 2 days” value stood at 0.0366, the “Absolute cell counts 7 days” value is listed as 6.20E+04 and the “Relative cell counts 7 days” value stood at 0.0151. Further, in the test on A. brasiliensis (substance alone 0.5% w/w), the “Absolute cell counts 14 days” value is given as 5.90E+04, the “Relative cell counts 14 days” value is 0.0144, the “Absolute cell counts 28 days” value stood at 4.60E+04 and the “Relative cell counts 28 days” value is 0.0112.
For the compound `Cc1cc(CC(C)CC(C)(C)C)n(O)c(=O)c1.NCCO` (centres unmarked) [Piroctone olamine, piroctone olamine, reference compound], the “Absolute cell counts 2 days” value in the test on E. coli [1] (2 days) is 1; in the test on C. albicans it was 1; in the test with P. aeruginosa, 1; in the test on S. aureus [2] (2 days), 2.50E+06. Further, the “Relative cell counts 2 days” value is listed as 0.0000 in the test on E. coli [1] (2 days), 0.0000 in the test on C. albicans, 0.0000 in the test on P. aeruginosa and 0.7813 in the test with S. aureus [2] (2 days). The “Absolute cell counts 7 days” value in the test on E. coli [1] (7 days) is 1; with C. albicans, 1; in the test on P. aeruginosa it was 1; with S. aureus [2] (7 days), 3.80E+04. Further, the “Relative cell counts 7 days” value in the test on E. coli [1] (7 days) came to 0.0000; in the test with C. albicans it was 0.0000; in the test with P. aeruginosa, 0.0000; in the test with S. aureus [2] (7 days) it was 0.0119. Further, the “Absolute cell counts 14 days” value in the test with E. coli [1] (14 days), with C. albicans, with P. aeruginosa and with S. aureus [2] (14 days) was 1 throughout. For the same compound, the “Relative cell counts 14 days” value in the test on E. coli [1] (14 days), in the test on C. albicans, with P. aeruginosa and in the test on S. aureus [2] (14 days) was 0.0000 in each case. Also, the “Absolute cell counts 28 days” value in the test with E. coli [1] (28 days), with C. albicans, in the test on P. aeruginosa and with S. aureus [2] (28 days) was 1 each time. The “Relative cell counts 28 days” value in the test with E. coli [1] (28 days), in the test with C. albicans, with P. aeruginosa and in the test with S. aureus [2] (28 days) was 0.0000 throughout.
As to `C/C=C/C=C/C(=O)[O-].[K+]` [Potassium Sorbate, potassium sorbate], in the test with A. brasiliensis (substance alone 0.5% w/w), the “Absolute cell counts 2 days” value was determined as 1.40E+04, the “Relative cell counts 2 days” value worked out at 0.0034, the “Absolute cell counts 7 days” value is 1 and the “Relative cell counts 7 days” value is given as 0.0000. In the test on A. brasiliensis (substance alone 0.5% w/w), the “Absolute cell counts 14 days” value was found to be 1, the “Relative cell counts 14 days” value turned out to be 0.0000, the “Absolute cell counts 28 days” value was 1 and the “Relative cell counts 28 days” value came out at 0.0000.
On to `O=C(O)c1ccccc1O` [Salicylic Acid, salicylic acid, reference compound], for which, in the test with C. albicans, the “Absolute cell counts 2 days” value is 7.30E+01, the “Relative cell counts 2 days” value is on record as 0.0000, the “Absolute cell counts 7 days” value was 1 and the “Relative cell counts 7 days” value turned out to be 0.0000. Further, in the test on C. albicans, the “Absolute cell counts 14 days” value turned out to be 1, the “Relative cell counts 14 days” value is recorded as 0.0000, the “Absolute cell counts 28 days” value was 1 and the “Relative cell counts 28 days” value came to 0.0000. In the test with P. aeruginosa, the “Absolute cell counts 2 days” value is 1, the “Relative cell counts 2 days” value is reported as 0.0000, the “Absolute cell counts 7 days” value came out at 1 and the “Relative cell counts 7 days” value was 0.0000. Moreover, in the test on P. aeruginosa, the “Absolute cell counts 14 days” value is recorded as 1, the “Relative cell counts 14 days” value worked out at 0.0000, the “Absolute cell counts 28 days” value is 1 and the “Relative cell counts 28 days” value was found to be 0.0000. In addition, in the test on E. coli [3], the “Absolute cell counts 2 days” value turned out to be 9.50E+03, the “Relative cell counts 2 days” value came out at 0.0021, the “Absolute cell counts 7 days” value was determined as 7.20E+03 and the “Relative cell counts 7 days” value worked out at 0.0016. In the test with E. coli [3], the “Absolute cell counts 14 days” value is reported as 1, the “Relative cell counts 14 days” value is reported as 0.0000, the “Absolute cell counts 28 days” value was 1 and the “Relative cell counts 28 days” value was 0.0000.
For the compound `O=C([O-])c1ccccc1.[Na+]` [Sodium Benzoate, sodium benzoate], in the test with P. aeruginosa, the “Absolute cell counts 2 days” value worked out at 9.60E+03, the “Relative cell counts 2 days” value was found to be 0.0026, the “Absolute cell counts 7 days” value is recorded as 1 and the “Relative cell counts 7 days” value was 0.0000. In the test on P. aeruginosa, the “Absolute cell counts 14 days” value was determined as 1, the “Relative cell counts 14 days” value is recorded as 0.0000, the “Absolute cell counts 28 days” value was 1 and the “Relative cell counts 28 days” value turned out to be 0.0000. In addition, in the test with S. aureus [4] (2 days), the “Absolute cell counts 2 days” value is listed as 2.20E+04 and the “Relative cell counts 2 days” value stood at 0.0037. In addition, in the test with S. aureus [4] (7 days), the “Absolute cell counts 7 days” value is recorded as 1 and the “Relative cell counts 7 days” value is reported as 0.0000. In the test with S. aureus [4] (14 days), the “Absolute cell counts 14 days” value is on record as 1 and the “Relative cell counts 14 days” value worked out at 0.0000. In addition, in the test with S. aureus [4] (28 days), the “Absolute cell counts 28 days” value is reported as 1 and the “Relative cell counts 28 days” value was 0.0000. In the test with A. brasiliensis (substance alone 0.2% w/w), the “Absolute cell counts 2 days” value came to 8.00E+04, the “Relative cell counts 2 days” value stood at 0.0800, the “Absolute cell counts 7 days” value is given as 1.10E+04 and the “Relative cell counts 7 days” value is given as 0.0110. Moreover, in the test on A. brasiliensis (substance alone 0.2% w/w), the “Absolute cell counts 14 days” value was found to be 3.30E+02, the “Relative cell counts 14 days” value turned out to be 0.0003, the “Absolute cell counts 28 days” value turned out to be 3.20E+02 and the “Relative cell counts 28 days” value is reported as 0.0003. Besides, in the test with E. coli [3], the “Absolute cell counts 2 days” value turned out to be 8.70E+05, the “Relative cell counts 2 days” value was 0.1933, the “Absolute cell counts 7 days” value was 9.50E+05 and the “Relative cell counts 7 days” value worked out at 0.2111. Besides, in the test with E. coli [3], the “Absolute cell counts 14 days” value is 4.20E+05, the “Relative cell counts 14 days” value is on record as 0.0933, the “Absolute cell counts 28 days” value came to 2.40E+04 and the “Relative cell counts 28 days” value turned out to be 0.0053.
